We go through 4 compounds from ChEMBL document CHEMBL5442219.

Common to all, as to settings: Compound concentration 10 µM
The target of assay [1] is T1, Muscarinic acetylcholine receptor M2 (Homo sapiens) (UniProt P08172).
T1 sequence (whole entry): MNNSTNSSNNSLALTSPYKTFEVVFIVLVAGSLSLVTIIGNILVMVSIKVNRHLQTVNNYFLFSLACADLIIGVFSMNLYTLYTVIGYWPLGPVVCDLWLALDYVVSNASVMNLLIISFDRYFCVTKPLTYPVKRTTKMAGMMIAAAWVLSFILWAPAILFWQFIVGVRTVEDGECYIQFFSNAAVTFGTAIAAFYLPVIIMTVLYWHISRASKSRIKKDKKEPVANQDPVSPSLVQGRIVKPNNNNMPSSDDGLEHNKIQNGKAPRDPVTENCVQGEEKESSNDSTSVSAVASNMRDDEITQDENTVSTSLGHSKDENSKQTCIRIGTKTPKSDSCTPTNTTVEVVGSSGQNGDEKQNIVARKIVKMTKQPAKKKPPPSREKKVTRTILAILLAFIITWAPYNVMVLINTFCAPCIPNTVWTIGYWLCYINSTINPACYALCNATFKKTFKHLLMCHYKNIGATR
Description: PDSP Primary Binding target: CHRM2 - Compounds are tested at 10 uM concentration, plate are incubated at room temperature in the dark for 90 minutes. Reaction are stopped by vacuum filtration onto 0.3% polyethyleneimine soaked filter mats using Filtermate harvester. Scintilation cocktail is then melted onto microwave-dried filters on a hot plate and the radio activity is counted in Microbia counter.

Assay [2] deals with 5-hydroxytryptamine receptor 1B (Homo sapiens) (UniProt P28222).
Description: PDSP Primary Binding target: HTR1B - Compounds are tested at 10 uM concentration, plate are incubated at room temperature in the dark for 90 minutes. Reaction are stopped by vacuum filtration onto 0.3% polyethyleneimine soaked filter mats using Filtermate harvester. Scintilation cocktail is then melted onto microwave-dried filters on a hot plate and the radio activity is counted in Microbia counter.
Assay [3] addresses Sodium-dependent serotonin transporter (Homo sapiens) (UniProt P31645).
Description: PDSP Primary Binding target: SLC6A4 - Compounds are tested at 10 uM concentration, plate are incubated at room temperature in the dark for 90 minutes. Reaction are stopped by vacuum filtration onto 0.3% polyethyleneimine soaked filter mats using Filtermate harvester. Scintilation cocktail is then melted onto microwave-dried filters on a hot plate and the radio activity is counted in Microbia counter.
Assay [4] deals with T2, Muscarinic acetylcholine receptor M5 (Homo sapiens) (UniProt P08912).
T2 sequence (whole entry): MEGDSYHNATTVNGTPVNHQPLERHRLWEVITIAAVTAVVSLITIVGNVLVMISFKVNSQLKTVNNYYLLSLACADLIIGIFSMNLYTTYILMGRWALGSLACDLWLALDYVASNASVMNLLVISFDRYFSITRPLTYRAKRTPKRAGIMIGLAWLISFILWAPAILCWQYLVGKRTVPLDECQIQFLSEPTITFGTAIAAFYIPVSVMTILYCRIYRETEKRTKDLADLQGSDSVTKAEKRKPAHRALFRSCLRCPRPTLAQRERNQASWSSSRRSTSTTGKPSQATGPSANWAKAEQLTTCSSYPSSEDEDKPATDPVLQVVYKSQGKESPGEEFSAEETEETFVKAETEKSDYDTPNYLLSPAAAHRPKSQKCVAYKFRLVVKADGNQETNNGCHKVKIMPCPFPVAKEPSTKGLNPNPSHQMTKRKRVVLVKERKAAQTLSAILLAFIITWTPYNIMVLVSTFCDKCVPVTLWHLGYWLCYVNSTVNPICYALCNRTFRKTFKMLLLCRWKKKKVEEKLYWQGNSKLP
Description: PDSP Primary Binding target: CHRM5 - Compounds are tested at 10 uM concentration, plate are incubated at room temperature in the dark for 90 minutes. Reaction are stopped by vacuum filtration onto 0.3% polyethyleneimine soaked filter mats using Filtermate harvester. Scintilation cocktail is then melted onto microwave-dried filters on a hot plate and the radio activity is counted in Microbia counter.

Assay [5] addresses T3, Alpha-1D adrenergic receptor (Homo sapiens) (UniProt P25100).
T3 sequence (whole entry): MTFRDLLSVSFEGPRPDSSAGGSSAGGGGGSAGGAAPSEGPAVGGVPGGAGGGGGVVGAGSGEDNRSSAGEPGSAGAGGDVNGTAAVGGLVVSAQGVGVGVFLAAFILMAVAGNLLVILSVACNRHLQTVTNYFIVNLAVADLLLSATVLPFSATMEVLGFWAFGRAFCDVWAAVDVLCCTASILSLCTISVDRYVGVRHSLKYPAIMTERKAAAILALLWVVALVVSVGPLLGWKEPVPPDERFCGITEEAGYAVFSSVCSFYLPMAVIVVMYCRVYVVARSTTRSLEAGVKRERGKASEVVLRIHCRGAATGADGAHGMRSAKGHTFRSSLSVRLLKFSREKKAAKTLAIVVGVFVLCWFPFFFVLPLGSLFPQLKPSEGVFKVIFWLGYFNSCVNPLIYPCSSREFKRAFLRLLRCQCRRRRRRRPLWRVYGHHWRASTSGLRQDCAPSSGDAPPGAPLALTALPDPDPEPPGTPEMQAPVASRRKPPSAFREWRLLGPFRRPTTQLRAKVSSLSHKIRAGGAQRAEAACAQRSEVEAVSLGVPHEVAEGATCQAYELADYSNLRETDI
Description: PDSP Primary Binding target: ADRA1D - Compounds are tested at 10 uM concentration, plate are incubated at room temperature in the dark for 90 minutes. Reaction are stopped by vacuum filtration onto 0.3% polyethyleneimine soaked filter mats using Filtermate harvester. Scintilation cocktail is then melted onto microwave-dried filters on a hot plate and the radio activity is counted in Microbia counter.

Assay [6] addresses T4, Alpha-2A adrenergic receptor (Homo sapiens) (UniProt P08913).
T4 sequence (whole entry): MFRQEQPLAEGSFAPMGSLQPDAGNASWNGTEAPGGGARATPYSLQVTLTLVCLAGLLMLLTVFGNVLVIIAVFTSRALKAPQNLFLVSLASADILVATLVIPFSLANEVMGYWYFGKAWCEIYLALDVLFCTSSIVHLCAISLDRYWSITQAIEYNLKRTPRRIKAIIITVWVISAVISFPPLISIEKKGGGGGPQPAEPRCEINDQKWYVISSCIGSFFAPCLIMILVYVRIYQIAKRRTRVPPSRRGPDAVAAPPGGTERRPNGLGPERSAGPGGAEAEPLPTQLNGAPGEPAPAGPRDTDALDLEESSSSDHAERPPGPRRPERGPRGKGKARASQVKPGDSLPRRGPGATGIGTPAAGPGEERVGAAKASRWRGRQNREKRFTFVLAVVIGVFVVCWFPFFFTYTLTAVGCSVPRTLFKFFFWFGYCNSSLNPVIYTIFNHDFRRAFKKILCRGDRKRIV
Description: PDSP Primary Binding target: ADRA2A - Compounds are tested at 10 uM concentration, plate are incubated at room temperature in the dark for 90 minutes. Reaction are stopped by vacuum filtration onto 0.3% polyethyleneimine soaked filter mats using Filtermate harvester. Scintilation cocktail is then melted onto microwave-dried filters on a hot plate and the radio activity is counted in Microbia counter.

Sequence of 5-hydroxytryptamine receptor 1B (Homo sapiens) (P28222 whole entry): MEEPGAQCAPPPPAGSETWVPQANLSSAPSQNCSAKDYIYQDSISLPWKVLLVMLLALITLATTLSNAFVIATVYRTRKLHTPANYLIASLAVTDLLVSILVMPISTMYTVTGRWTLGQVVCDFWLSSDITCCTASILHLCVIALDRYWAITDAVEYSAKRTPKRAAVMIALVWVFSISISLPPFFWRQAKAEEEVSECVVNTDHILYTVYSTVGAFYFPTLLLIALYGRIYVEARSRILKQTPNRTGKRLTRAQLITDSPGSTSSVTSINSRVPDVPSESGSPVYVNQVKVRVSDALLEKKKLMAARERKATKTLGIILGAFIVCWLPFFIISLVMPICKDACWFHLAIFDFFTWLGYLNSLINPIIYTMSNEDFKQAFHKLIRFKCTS
Sequence of Sodium-dependent serotonin transporter (Homo sapiens) (P31645 whole entry, looked up): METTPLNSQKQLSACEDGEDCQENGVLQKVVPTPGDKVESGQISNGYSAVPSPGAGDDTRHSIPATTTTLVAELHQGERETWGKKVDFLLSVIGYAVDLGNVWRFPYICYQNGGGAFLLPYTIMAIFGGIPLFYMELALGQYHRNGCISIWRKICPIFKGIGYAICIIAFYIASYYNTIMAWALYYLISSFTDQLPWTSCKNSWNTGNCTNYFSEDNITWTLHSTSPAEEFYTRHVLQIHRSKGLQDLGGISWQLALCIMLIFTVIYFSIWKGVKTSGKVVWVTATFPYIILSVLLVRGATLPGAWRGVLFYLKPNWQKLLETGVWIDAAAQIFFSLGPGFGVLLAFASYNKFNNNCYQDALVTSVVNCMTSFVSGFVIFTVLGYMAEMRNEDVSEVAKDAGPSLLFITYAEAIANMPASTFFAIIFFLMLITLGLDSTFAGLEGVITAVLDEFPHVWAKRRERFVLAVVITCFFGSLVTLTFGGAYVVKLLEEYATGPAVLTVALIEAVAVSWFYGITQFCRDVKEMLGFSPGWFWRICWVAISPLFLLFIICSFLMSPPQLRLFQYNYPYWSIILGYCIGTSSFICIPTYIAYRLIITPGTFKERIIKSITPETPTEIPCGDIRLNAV

Turning to `Cc1csc(NC(=O)c2cc(F)cc(Oc3cncnc3)c2)n1`, the inhibition is -7.43% in assay [1], -4.65% in assay [2] and 21.2% in assay [3].
As for `COC1CCN(c2cccc(-c3cc(NC(C)=O)nc(-n4nc(C)cc4C)n3)n2)CC1`, the inhibition was -2.53% in assay [4] and 17.4% in assay [5].
As for `Cc1nnn(-c2ccc(-c3ccc(C4(C(=O)O)CC4)cc3)cc2)c1NC(=O)O[C@H](C)c1ccccc1`, the inhibition in assay [2] was -3.56%; in assay [5], 23.9%; in assay [6], 0.57%.
Take `COc1ccnc(N2CCC3(CCCN(Cc4c[nH]c5ccccc45)C3=O)CC2)n1`: the inhibition in assay [1] is -2.35%.

One may read the inhibition as the drop in the measured response relative to a control, in per cent.
